Molecules are shown by their SMILES.

human A2A receptor, sequence (P29274 whole entry): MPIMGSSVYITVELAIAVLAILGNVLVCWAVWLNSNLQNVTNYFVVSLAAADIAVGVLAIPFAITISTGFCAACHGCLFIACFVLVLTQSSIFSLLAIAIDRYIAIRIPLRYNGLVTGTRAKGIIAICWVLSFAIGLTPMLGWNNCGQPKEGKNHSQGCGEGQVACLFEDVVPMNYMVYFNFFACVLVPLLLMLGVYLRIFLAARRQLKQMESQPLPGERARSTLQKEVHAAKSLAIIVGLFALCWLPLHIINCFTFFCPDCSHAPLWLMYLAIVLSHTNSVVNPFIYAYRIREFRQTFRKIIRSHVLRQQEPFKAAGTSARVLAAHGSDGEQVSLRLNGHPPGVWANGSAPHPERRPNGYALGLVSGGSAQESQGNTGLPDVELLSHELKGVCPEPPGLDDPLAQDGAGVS

For the experiment, the target named is human A2A receptor (Homo sapiens (Human), UniProt P29274). The experiment is described as follows: competition binding assay using Scintillation Proximity technology. The note with it: membranes from CHO-K1 cells expressing the human A2a receptor; 2.0 nM tritiated compound; Cheng-Prusoff. In short, it runs like this:
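Membranes (1.0 μg) from CHO-K1 cells expressing human A2A were treated with adenosine deaminase, then incubated 1 h at room temperature with compound (3000–0.15 nM) and 2.0 nM tritiated SCH-type ligand on WGA SPA beads in PBS plus 10 mM MgCl2. Nonspecific binding was defined with 1 μM CGS 15943. Ki was derived from EC50 via Cheng-Prusoff.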
In the case of `Nc1nc2c3c(ccc2c2nc(CCN4CC(F)(C5CC5)C4)nn12)OC(F)(F)O3` [Example 18, 8-[2-(3-cyclopropyl-3-fluoroazetidin-1-yl)ethyl]-2,2-difluoro[1,3]dioxolo[4,5-h][1,2,4]triazolo[1,5-c]quinazolin-5-amine], the inhibition constant Ki is 1.6 nM.
Under `Nc1nc2c3c(ccc2c2nc(CCN4CC5CNC[C@H]5C4)nn12)OC(F)(F)O3` (stereo partly drawn) [Example 52, 2,2-difluoro-8-{2-[(3aS)-hexahydropyrrolo[3,4-c]pyrrol-2(1H)-yl]ethyl}[1,3]dioxolo [4,5-h][1,2,4]triazolo[1,5-c]quinazolin-5-amine] stands 40 nM; under `Nc1nc2c3c(ccc2c2nc(CC4CN(C5CCC5)C4)nn12)OC(F)(F)O3` [Example 151, 8-[(1-cyclobutylazetidin-3-yl)methyl]-2,2-difluoro[1,3]dioxolo[4,5-h][1,2,4]triazolo[1,5-c]quinazolin-5-amine], 65 nM.
`CC(c1nc2c3ccc4c(c3nc(N)n2n1)OC(F)(F)O4)N1C[C@H](F)[C@@H](F)C1` (single isomer, unassigned) [Example 133, (R or S)-8-{1-[(3S,4S)-3,4-difluoropyrrolidin-1-yl]ethyl}-2,2-difluoro[1,3]dioxolo[4,5-h][1,2,4]triazolo[1,5-c]quinazolin-5-amine] gave an inhibition constant Ki of 64 nM.
As to `Nc1nc2c3c(ccc2c2nc(CCN4C[C@H]5CCCN[C@H]5C4)nn12)OC(F)(F)O3` [Example 51, 2,2-difluoro-8-{2-[(4aR,7aR)-octahydro-6H-pyrrolo[3,4-b]pyridin-6-yl]ethyl}[1,3]dioxolo [4,5-h][1,2,4]triazolo[1,5-c]quinazolin-5-amine], the affinity corresponds to a Ki of 55 nM.
As for `CC1(F)CN(CCc2nc3c4ccc5c(c4nc(N)n3n2)OC(F)(F)O5)C1` [Example 16, 2,2-difluoro-8-[2-(3-fluoro-3-methylazetidin-1-yl)ethyl] [1,3]dioxolo[4,5-h][1,2,4] triazolo[1,5-c]quinazolin-5-amine], the figure is 3.2 nM; as for `C[C@@H]1CN(c2nsnc2Cl)CCN1CCc1nc2c3ccc4c(c3nc(N)n2n1)OC(F)(F)O4` [Example 46, 8-{2-[(2R)-4-(4-chloro-1,2,5-thiadiazol-3-yl)-2-methylpiperazin-1-yl]ethyl}-2,2-difluoro[1,3]dioxolo[4,5-h][1,2,4]triazolo[1,5-c]quinazolin-5-amine], 1.8 nM.
Under `C[C@H]1CC(F)(F)CN1CCc1nc2c3ccc4c(c3nc(N)n2n1)OC(F)(F)O4` [Example 26, 8-{2-[(2S)-4,4-difluoro-2-methylpyrrolidin-1-yl]ethyl}-2,2-difluoro[1,3]dioxolo[4,5-h][1,2,4]triazolo[1,5-c]quinazolin-5-amine] stands 3 nM.
Under `Nc1nc2c3c(ccc2c2nc(CCN4CCCC(O)(C(F)(F)F)C4)nn12)OC(F)(F)O3` (single isomer, unassigned) [Example 70, (R or S)-1-(2-(5-amino-2,2-difluoro-[1,3]dioxolo[4,5-h][1,2,4]triazolo[1,5-c]quinazolin-8-yl)ethyl)-3-(trifluoromethyl)piperidin-3-ol] stands 5.2 nM; under `Nc1nc2c3c(ccc2c2nc(CN4CC(F)(C(F)(F)F)C4)nn12)OC(F)(F)O3` [Example 114, 2,2-difluoro-8-{[3-fluoro-3-(trifluoromethyl)azetidin-1-yl]methyl} [1,3]dioxolo[4,5-h][1,2,4]triazolo[1,5-c]quinazolin-5-amine], 1.4 nM.
Regarding `Nc1nc2c3c(ccc2c2nc(CC(C(F)F)N4Cc5cccnc5C4)nn12)OC(F)(F)O3` (single isomer, unassigned) [Example 98, (R or S)-8-(3,3-difluoro-2-(5H-pyrrolo[3,4-b]pyridin-6(7H)-yl)propyl)-2,2-difluoro-[1,3]dioxolo[4,5-h][1,2,4]triazolo[1,5-c]quinazolin-5-amine], affinity was put at a Ki of 6.6 nM.
As for `Nc1nc2c3c(ccc2c2nc(CCN4Cc5ccncc5C4)nn12)OC(F)(F)O3` [Example 11, 8-[2-(1,3-dihydro-2H-pyrrolo[3,4-c]pyridin-2-yl)ethyl]-2,2-difluoro[1,3] dioxolo[4,5-h][1,2,4]triazolo [1,5-c]quinazolin-5-amine], the figure is 2.1 nM.
Under `CC1(F)CN(Cc2nc3c4ccc5c(c4nc(N)n3n2)OC(F)(F)O5)C1` [Example 111, 2,2-difluoro-8-[(3-fluoro-3-methylazetidin-1-yl)methyl][1,3] dioxolo[4,5-h][1,2,4]triazolo[1,5-c]quinazolin-5-amine] stands 1.4 nM.
As for `C[C@H](Cc1nc2c3ccc4c(c3nc(N)n2n1)OC(F)(F)O4)N1CCCC(C)(F)C1` (single isomer, unassigned) [Example 85, 2,2-difluoro-8-{(2R)-2-[(3R or 3S)-3-fluoro-3-methylpiperidin-1-yl]propyl}[1,3]dioxolo[4,5-h][1,2,4]triazolo[1,5-c]quinazolin-5-amine], the figure is 12 nM; as for `Nc1nc2c3c(ccc2c2nc(CCN4CC(F)(C(F)(F)F)C4)nn12)OC(F)(F)O3` [Example 21, 2,2-difluoro-8-{2-[3-fluoro-3-(trifluoromethyl)azetidin-1-yl]ethyl}[1,3]dioxolo[4,5-h][1,2,4]triazolo[1,5-c]quinazolin-5-amine], 3.4 nM; as for `Nc1nc2c3c(ccc2c2nc(CCN4Cc5ccc(C(F)(F)F)cc5C4)nn12)OC(F)(F)O3` [Example 7, 2,2-difluoro-8-{2-[5-(trifluoromethyl)-1,3-dihydro-2H-isoindol-2-yl]ethyl}[1,3]-dioxolo[4,5-h][1,2,4]triazolo [1,5-c]quinazolin-5-amine], 3.1 nM.
`Nc1nc2c3c(ccc2c2nc(C[C@H](N)C4CC4)nn12)OC(F)(F)O3` [Example 158, 8-[(2S)-2-amino-2-cycloproplethyl]-2,2-difluoro[1,3]dioxolo[4,5-h][1,2,4]triazolo[1,5-c]quinazolin-5-amine] yielded a Ki of 19 nM.
The molecule `Nc1nc2c3c(ccc2c2nc(C4CCCN(c5cncnc5)C4)nn12)OC(F)(F)O3` (single isomer, unassigned) [Example 147, (R or S)-2,2-difluoro-8-(1-pyrimidin-5-ylpiperidin-3-yl)[1,3]dioxolo[4,5-h][1,2,4]triazolo[1,5-c]quinazolin-5-amine] showed an inhibitory constant (Ki) of 2.9 nM.
The molecule `CC(Cc1nc2c3ccc4c(c3nc(N)n2n1)OC(F)(F)O4)N1CCCC(F)(F)C1` (single isomer, unassigned) [Example 96, (R or S)-8-[2-(3,3-difluoropiperidin-1-yl)propyl]-2,2-difluoro[1,3] dioxolo[4,5-h][1,2,4]triazolo[1,5-c] quinazolin-5-amine] gave an inhibitory constant (Ki) of 4.1 nM.
`COCCOc1ccc(N2CCN(Cc3nc4c5ccc6c(c5nc(N)n4n3)OC(F)(F)O6)C3(CC3)C2)cc1` [Example 105, 2,2-difluoro-8-({7-[4-(2-methoxyethoxy)phenyl]-4,7-diazaspiro[2.5]oct-4-yl}methyl) [1,3]dioxolo[4,5-h][1,2,4]triazolo [1,5-c]quinazolin-5-amine]: the affinity, expressed as Ki, was 3.7 nM.
Under `CC1(C)CN(Cc2nc3c4ccc5c(c4nc(N)n3n2)OC(F)(F)O5)C1` [Example 110, 8-[(3,3-dimethylazetidin-1-yl)methyl]-2,2-difluoro[1,3]dioxolo[4,5-h][1,2,4]triazolo[1,5-c]quinazolin-5-amine] stands 2.9 nM; under `Nc1nc2c3c(ccc2c2nc(CCN4CCC(F)(F)CC4)nn12)OC(F)(F)O3` [Example 30, 8-[2-(4,4-difluoropiperidin-1-yl)ethyl]-2,2-difluoro[1,3] dioxolo[4,5-h][1,2,4]triazolo [1,5-c]quinazolin-5-amine], 2.6 nM.
As for `Nc1nc2c3c(ccc2c2nc(CCN4CCC5(CCNCC5)CC4)nn12)OC(F)(F)O3` [Example 54, 8-[2-(3,9-diazaspiro[5.5]undec-3-yl)ethyl]-2,2-difluoro[1,3] dioxolo[4,5-h][1,2,4]triazolo [1,5-c]quinazolin-5-amine], the figure is 320 nM; as for `CC1(F)CCCN(CCc2nc3c4ccc5c(c4nc(N)n3n2)OC(F)(F)O5)C1` (single isomer, unassigned) [Example 65, (R or S)-2,2-difluoro-8-[2-(3-fluoro-3-methylpiperidin-1-yl)ethyl][1,3] dioxolo[4,5-h][1,2,4]triazolo[1,5-c] quinazolin-5-amine], 4.2 nM.
Take `Nc1nc2c3c(ccc2c2nc(CN4CCN(c5ccc(F)cn5)CC45CC5)nn12)OC(F)(F)O3` [Example 103, 2,2-difluoro-8-{[7-(5-fluoropyridin-2-yl)-4,7-diazaspiro[2.5]oct-4-yl]methyl}[1,3]dioxolo[4,5-h][1,2,4] triazolo[1,5-c]quinazolin-5-amine]: the Ki worked out at 3.4 nM.
As for `Nc1nc2c3c(ccc2c2nc(CN4CC(F)(F)C4)nn12)OC(F)(F)O3` [Example 109, 8-((3,3-difluoroazetidin-1-yl)methyl)-2,2-difluoro-[1,3]dioxolo[4,5-h][1,2,4]triazolo[1,5-c]quinazolin-5-amine], the figure is 5.9 nM; as for `CCc1nnc2n1CCN(CCc1nc3c4ccc5c(c4nc(N)n3n1)OC(F)(F)O5)C2` [Example 10, 8-[2-(3-ethyl-5,6-dihydro[1,2,4]triazolo[4,3-a]pyrazin-7(8H)-yl)ethyl]-2,2-difluoro[1,3]dioxolo[4,5-h][1,2,4]triazolo[1,5-c]quinazolin-5-amine], 1.6 nM.
Under `C[C@H](Cc1nc2c3ccc4c(c3nc(N)n2n1)OC(F)(F)O4)N1CCc2nc(C3CC3)oc2C1` [Example 81, 8-[(2R)-2-(2-cyclopropyl-6,7-dihydro [1,3]oxazolo[5,4-c]pyridin-5(4H)-yl)propyl]-2,2-difluoro[1,3] dioxolo[4,5-h][1,2,4]triazolo[1,5-c]quinazolin-5-amine] stands 2.4 nM; under `Nc1nc2c3c(ccc2c2nc(CCN4CC[C@H](c5ccccc5)C4)nn12)OC(F)(F)O3` [Example 37, 2,2-difluoro-8-{2-[(3R)-3-phenylpyrrolidin-1-yl]ethyl}[1,3]dioxolo[4,5-h][1,2,4]triazolo[1,5-c]quinazolin-5-amine], 20 nM.

The values above are taken from patent US11046714B2, “2,2-difluorodioxolo A2A receptor antagonists” (Merck Sharp & Dohme Corp., priority 2013, dated 2021).
